According to ChEMBL document CHEMBL5365529, “Construction and Evaluation of Novel Dual-function Antifungal Inhibitors and Covalent Organic Framework Carriers Based on the Infection Microenvironment” (J Med Chem, 2023):
Values after ≈ are worked out from the molar mass of the structure shown. Active and inactive are the calls of the source. The rule behind the calls is not given here.

How the values were obtained:
[1] = tested on: Candida albicans; test: Antifungal activity against Candida albicans SC5314 assessed as fungal growth inhibition incubated for 72 hrs by CLSI based susceptibility test; format: functional
[2] = tested on: Cryptococcus neoformans; test: Antifungal activity against Cryptococcus neoformans ZKCC 2209 assessed as fungal growth inhibition incubated for 72 hrs by CLSI based susceptibility test; format: functional
[3] = tested on: Candida albicans; test: Antifungal activity against FLC-resistant Candida albicans CaR assessed as fungal growth inhibition incubated for 72 hrs by CLSI based susceptibility test; format: functional
[4] = tested on: Candida albicans; test: Antifungal activity against FLC-resistant Candida albicans 17# assessed as fungal growth inhibition incubated for 72 hrs by CLSI based susceptibility test; format: functional
[5] = tested on: Candida tropicalis; test: Antifungal activity against Candida tropicalis ATCC 1369 assessed as fungal growth inhibition incubated for 72 hrs by CLSI based susceptibility test; format: functional
[6] = tested on: Candida albicans; test: Antifungal activity against FLC-resistant Candida albicans 901 assessed as fungal growth inhibition incubated for 72 hrs by CLSI based susceptibility test; format: functional
[7] = tested on: Aspergillus fumigatus; test: Antifungal activity against Aspergillus fumigatus KM8001 assessed as fungal growth inhibition incubated for 72 hrs by CLSI based susceptibility test; format: functional
[8] = tested on: Candida albicans; test: Antifungal activity against FLC-resistant Candida albicans 904 assessed as fungal growth inhibition incubated for 72 hrs by CLSI based susceptibility test; format: functional
[9] = tested on: Nakaseomyces glabratus; test: Antifungal activity against Candida glabrata assessed as fungal growth inhibition incubated for 72 hrs by CLSI based susceptibility test; format: functional
[10] = tested on: Candida albicans; test: Antifungal activity against FLC-resistant Candida albicans 632 assessed as fungal growth inhibition incubated for 72 hrs by CLSI based susceptibility test; format: functional
[11] = target: T1, Programmed cell death 1 ligand 1 (Homo sapiens, UniProt Q9NZQ7); test: Inhibition of human PD-L1 incubated for 15 mins by ELISA method
[12] = tested on: Candida albicans; test: Induction of mitochondrial membrane depolarization in Candida albicans SC5314 by JC-1 staining based flow cytometry (reference value: 12.51 %); format: functional
[13] = target: T2, Lanosterol 14-alpha demethylase (Candida albicans (strain SC5314 / ATCC MYA-2876) (Yeast), UniProt P10613); test: Inhibition of CYP51 in Candida albicans SC5314 assessed as unknown sterol level at 4 ug/ml incubated for 16 hrs by GC-MS analysis (reference value: 5.35 %); set-up: scale not given: the % may be the effect or the level left; settings: at 4 µg/mL
[14] = target: T1, Programmed cell death 1 ligand 1; test: Binding affinity to PD-L1 (unknown origin) immobilized on carboxy chip assessed as dissociation constant by SPR analysis
[15] = target: T2, Lanosterol 14-alpha demethylase; test: Inhibition of CYP51 in Candida albicans SC5314 using lanosterol as substrate incubated for 60 mins by HPLC analysis
[16] = target: T2, Lanosterol 14-alpha demethylase; test: Inhibition of CYP51 in Candida albicans SC5314 assessed as ergosterol level at 4 ug/ml incubated for 16 hrs by GC-MS analysis (reference value: 92.07 %); set-up: scale not given: the % may be the effect or the level left; settings: at 4 µg/mL
[17] = tested on: Candida albicans; test: Induction of apoptosis in Candida albicans SC5314 assessed as increase in ROS level at 1 uM/ml incubated for 48 hrs by fluorescence microscopy; format: functional, organism-based
[18] = target: T2, Lanosterol 14-alpha demethylase; test: Inhibition of CYP51 in Candida albicans SC5314 assessed as lanosterol level at 4 ug/ml incubated for 16 hrs by GC-MS analysis relative to control; set-up: scale not given: the % may be the effect or the level left; settings: at 4 µg/mL
[19] = tested on: Candida albicans; test: Induction of apoptosis in Candida albicans SC5314 assessed as necrotic cells incubated for 48 hrs by annexin V-FITC/PI staining based flow cytometry (reference value: 2.12 %); format: functional
[20] = tested on: Candida albicans; test: Induction of apoptosis in Candida albicans SC5314 assessed as apoptotic cells incubated for 48 hrs by annexin V-FITC/PI staining based flow cytometry (reference value: 2.12 %); format: functional

T2 sequence (P10613 whole entry): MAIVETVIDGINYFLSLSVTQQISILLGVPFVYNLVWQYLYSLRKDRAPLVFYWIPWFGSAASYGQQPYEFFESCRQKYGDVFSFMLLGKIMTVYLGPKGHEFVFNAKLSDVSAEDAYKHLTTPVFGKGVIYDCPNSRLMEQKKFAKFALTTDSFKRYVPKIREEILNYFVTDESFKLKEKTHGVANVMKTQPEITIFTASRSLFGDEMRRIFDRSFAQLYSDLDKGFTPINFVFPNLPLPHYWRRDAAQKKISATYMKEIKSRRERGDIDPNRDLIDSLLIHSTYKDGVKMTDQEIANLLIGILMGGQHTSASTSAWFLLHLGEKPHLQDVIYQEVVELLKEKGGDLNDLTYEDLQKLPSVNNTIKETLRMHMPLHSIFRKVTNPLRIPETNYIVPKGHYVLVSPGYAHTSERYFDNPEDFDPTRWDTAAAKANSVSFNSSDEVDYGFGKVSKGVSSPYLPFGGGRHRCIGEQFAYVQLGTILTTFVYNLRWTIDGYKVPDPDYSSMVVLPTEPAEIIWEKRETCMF
T1 sequence (Q9NZQ7 whole entry): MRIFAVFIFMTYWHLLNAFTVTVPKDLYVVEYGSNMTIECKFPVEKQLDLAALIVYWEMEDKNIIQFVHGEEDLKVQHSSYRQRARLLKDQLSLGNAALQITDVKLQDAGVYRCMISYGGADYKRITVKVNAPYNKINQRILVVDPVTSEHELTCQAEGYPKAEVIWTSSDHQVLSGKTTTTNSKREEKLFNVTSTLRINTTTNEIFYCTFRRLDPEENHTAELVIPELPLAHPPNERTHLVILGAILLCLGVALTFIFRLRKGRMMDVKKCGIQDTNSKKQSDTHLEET

Compound	MIC50 [1]	MIC50 [2]	MIC50 [5]	MIC50 [7]	MIC50 [9]	further results
OC(Cn1cncn1)(Cn1cncn1)c1ccc(F)cc1F [FLUCONAZOLE]	0.5 µg/mL (≈ 1.63 µM)	1 µg/mL (≈ 3.27 µM)	0.5 µg/mL (≈ 1.63 µM)	> 8 µg/mL	0.25 µg/mL (≈ 0.816 µM)	MIC50 [3]: ≥ 8 µg/mL; MIC50 [4]: ≥ 8 µg/mL; MIC50 [6]: ≥ 8 µg/mL; MIC50 [8]: ≥ 8 µg/mL; MIC50 [10]: ≥ 8 µg/mL
CCOC(=O)[C@@H](Cn1cncn1)NC(=O)C1CCCN(C(=O)c2cccc(-c3ccccc3)c2)C1 (stereo not given in full)	0.25 µg/mL (≈ 0.526 µM)	2 µg/mL (≈ 4.21 µM)	0.5 µg/mL (≈ 1.05 µM)	> 8 µg/mL	0.5 µg/mL (≈ 1.05 µM)	
CC(C)OC(=O)[C@@H](Cn1ccnc1)NC(=O)C1CCCN(C(=O)c2cccc(-c3ccccc3)c2)C1 (stereo not given in full)	0.25 µg/mL (≈ 0.512 µM)	0.5 µg/mL (≈ 1.02 µM)	0.5 µg/mL (≈ 1.02 µM)	2 µg/mL (≈ 4.09 µM)	0.25 µg/mL (≈ 0.512 µM)	MIC50 [3]: 2 µg/mL (≈ 4.09 µM); IC50 [11]: 63 nM; Activity [12]: 34.74%; Activity [13]: 4.96%; Kd [14]: 15 nM; MIC50 [4]: ≥ 8 µg/mL; IC50 [15]: 410 nM; MIC50 [6]: 4 µg/mL (≈ 8.19 µM); Activity [16]: 16.08%; Activity [17]: Active; Activity [18]: 12.71%; Activity [19]: 25.91%; Activity [20]: 25.91%; MIC50 [8]: ≥ 8 µg/mL; MIC50 [10]: 4 µg/mL (≈ 8.19 µM)
COC(=O)[C@@H](Cn1ccnc1)NC(=O)C1CCCN(C(=O)c2cccc(-c3ccccc3)c2)C1 (stereo not given in full)	1 µg/mL (≈ 2.17 µM)	4 µg/mL (≈ 8.69 µM)	2 µg/mL (≈ 4.34 µM)	> 8 µg/mL	0.5 µg/mL (≈ 1.09 µM)	
Cc1c(COc2cccc(CN[C@H](Cn3cncn3)C(=O)OC(C)C)c2)cccc1-c1ccccc1	2 µg/mL (≈ 4.13 µM)	2 µg/mL (≈ 4.13 µM)	2 µg/mL (≈ 4.13 µM)	8 µg/mL (≈ 16.5 µM)	0.25 µg/mL (≈ 0.516 µM)	
CCOC(=O)[C@@H](Cn1cncn1)NCc1cccc(OCc2cccc(-c3ccccc3)c2C)c1	1 µg/mL (≈ 2.13 µM)	2 µg/mL (≈ 4.25 µM)	1 µg/mL (≈ 2.13 µM)	4 µg/mL (≈ 8.5 µM)	0.25 µg/mL (≈ 0.531 µM)	
CCOC(=O)[C@@H](Cn1ccnc1)NC(=O)C1CCCN(Cc2cccc(-c3ccccc3)c2C)C1 (stereo not given in full)	0.25 µg/mL (≈ 0.527 µM)	1 µg/mL (≈ 2.11 µM)	0.25 µg/mL (≈ 0.527 µM)	> 8 µg/mL	0.5 µg/mL (≈ 1.05 µM)	
CCOC(=O)[C@@H](Cn1cncn1)NC(=O)C1CCCN(Cc2cccc(-c3ccccc3)c2C)C1 (stereo not given in full)	0.25 µg/mL (≈ 0.526 µM)	2 µg/mL (≈ 4.21 µM)	0.5 µg/mL (≈ 1.05 µM)	> 8 µg/mL	0.5 µg/mL (≈ 1.05 µM)	
Cc1c(CN2CCCC(C(=O)N[C@H](Cn3cncn3)C(=O)OC(C)C)C2)cccc1-c1ccccc1 (stereo not given in full)	0.125 µg/mL (≈ 0.255 µM)	1 µg/mL (≈ 2.04 µM)	0.25 µg/mL (≈ 0.511 µM)	2 µg/mL (≈ 4.08 µM)	0.5 µg/mL (≈ 1.02 µM)	MIC50 [3]: 4 µg/mL (≈ 8.17 µM); IC50 [11]: 35 nM; Activity [12]: 34.74%; Activity [13]: 4.19%; Kd [14]: 15 nM; MIC50 [4]: 4 µg/mL (≈ 8.17 µM); IC50 [15]: 320 nM; MIC50 [6]: ≥ 8 µg/mL; Activity [16]: 14.71%; Activity [17]: Active; Activity [18]: 11.25%; Activity [19]: 25.91%; Activity [20]: 25.91%; MIC50 [8]: 4 µg/mL (≈ 8.17 µM); MIC50 [10]: 2 µg/mL (≈ 4.08 µM)
CC(C)OC(=O)[C@@H](Cn1cncn1)NC(=O)C1CCCN(C(=O)c2cccc(-c3ccccc3)c2)C1 (stereo not given in full)	0.5 µg/mL (≈ 1.02 µM)	2 µg/mL (≈ 4.09 µM)	1 µg/mL (≈ 2.04 µM)	4 µg/mL (≈ 8.17 µM)	1 µg/mL (≈ 2.04 µM)	
CCOC(=O)[C@@H](Cn1ccnc1)NC(=O)C1CCCN(C(=O)c2cccc(-c3ccccc3)c2)C1 (stereo not given in full)	0.5 µg/mL (≈ 1.05 µM)	1 µg/mL (≈ 2.11 µM)	0.5 µg/mL (≈ 1.05 µM)	4 µg/mL (≈ 8.43 µM)	1 µg/mL (≈ 2.11 µM)	
COC(=O)[C@@H](Cn1cncn1)NC(=O)C1CCCN(C(=O)c2cccc(-c3ccccc3)c2)C1 (stereo not given in full)	0.5 µg/mL (≈ 1.08 µM)	1 µg/mL (≈ 2.17 µM)	1 µg/mL (≈ 2.17 µM)	8 µg/mL (≈ 17.3 µM)	0.5 µg/mL (≈ 1.08 µM)	
COC(=O)[C@@H](Cn1ccnc1)NC(=O)C1CCCN(Cc2cccc(-c3ccccc3)c2C)C1 (stereo not given in full)	0.5 µg/mL (≈ 1.09 µM)	0.5 µg/mL (≈ 1.09 µM)	1 µg/mL (≈ 2.17 µM)	4 µg/mL (≈ 8.68 µM)	2 µg/mL (≈ 4.34 µM)	
COC(=O)[C@@H](Cn1ccnc1)NCc1cccc(OCc2cccc(-c3ccccc3)c2C)c1	0.5 µg/mL (≈ 1.1 µM)	1 µg/mL (≈ 2.2 µM)	2 µg/mL (≈ 4.39 µM)	> 8 µg/mL	1 µg/mL (≈ 2.2 µM)	
COC(=O)[C@@H](Cn1cncn1)NC(=O)C1CCCN(Cc2cccc(-c3ccccc3)c2C)C1 (stereo not given in full)	0.5 µg/mL (≈ 1.08 µM)	2 µg/mL (≈ 4.33 µM)	1 µg/mL (≈ 2.17 µM)	4 µg/mL (≈ 8.67 µM)	2 µg/mL (≈ 4.33 µM)	
Cc1c(CN2CCCC(C(=O)N[C@H](Cn3ccnc3)C(=O)OC(C)C)C2)cccc1-c1ccccc1 (stereo not given in full)	0.5 µg/mL (≈ 1.02 µM)	1 µg/mL (≈ 2.05 µM)	1 µg/mL (≈ 2.05 µM)	> 8 µg/mL	0.5 µg/mL (≈ 1.02 µM)	
CCOC(=O)[C@@H](Cn1ccnc1)NCc1cccc(OCc2cccc(-c3ccccc3)c2C)c1	0.5 µg/mL (≈ 1.06 µM)	1 µg/mL (≈ 2.13 µM)	0.5 µg/mL (≈ 1.06 µM)	4 µg/mL (≈ 8.52 µM)	1 µg/mL (≈ 2.13 µM)	
Cc1c(COc2cccc(CN[C@H](Cn3ccnc3)C(=O)OC(C)C)c2)cccc1-c1ccccc1	0.25 µg/mL (≈ 0.517 µM)	2 µg/mL (≈ 4.14 µM)	0.5 µg/mL (≈ 1.03 µM)	4 µg/mL (≈ 8.27 µM)	0.5 µg/mL (≈ 1.03 µM)	
